The source of these data is patent publication US9265747B2, “Platinum (IV) complexes for use in dual mode pharmaceutical therapy” (Massachusetts Institute of Technology, priority 2008, dated 2016).

By IC50 is commonly meant the concentration that inhibits the measured activity by half.

“Also recorded” adds a separate entry of the source.

The test system of test [1] is A549, human lung carcinoma. Put plainly: MTT assay, A549 cells. It is filed as cell-based. To be noted: 72 hours. As to the method:
[The procedure below names another cell line; the source lists this cell line under the same test.] (§1) MTT Assay. Cytotoxic behavior of compound 1, DCA and cis-DDP were evaluated using the MTT assay. Solutions of the platinum complexes were freshly prepared in sterile PBS before use and quantitated by atomic absorption spectroscopy. Cells were seeded on a 96 well plate (1000 cells per well for NTera-2, U2OS, HeLa; 1400 per well for normal fibriblast; 500 per well for 7B, 10B, 175F and 150×2) in 100 μL DMEM media and incubated for 24 hours. The cells were then treated with compound 1, DCA or cis-DDP, separately at varying concentrations and incubated for 72 hours at 37° C. The cells were then treated with 20 μL of 3-(4,5-dimethylthiazol-2-yl)-2,5-diphenyltetrazolium bromide (MTT) (5 mg/mL in PBS) and incubated for 5 h. The medium was removed, the cells were lysed by adding 100 μl, of DMSO, and the absorbance of the purple formazan was recorded at 550 nm using a BioTek Synergy HT multi-detection microplate plate reader. Each well was performed in triplicate in three independent experiments for each cell line.
For orientation: Tetrazolium assays rely on reduction of a dye to a coloured formazan, in cell work by metabolically active cells.

The subject of test [2] is MRC-5, normal lung fibroblast. Put plainly: MTT assay, MRC-5 normal cells. To be noted: 72 hours. It counts as cell-based, human. On the procedure: as §1
The subject of test [3] is NTera-2 cells. Put plainly: TMRM mitochondrial membrane potential assay, NTera-2 cells. It counts as cell-based, human. To be noted: listed as compound 1. On the procedure:
TMRM Assay. Analysis of mitochondrial membrane potential (Δψm) was carried out by using tetramethyl rhodamine methyl ester (TMRM). A similar procedure as mentioned above for the JC-1 assay was followed. Before fixing the cells, they were treated with 2 μM of TMRM for 30 min at 37° C.

Test [4] deals with NTera-2 cells. Put plainly: Immunofluorescence detection of cytochrome c and AIF. It counts as cell-based, human. To be noted: treated NTera-2 cells. On the procedure: Detection of cytochrome c and AIF. Normal fibroblast or Ntera-2 cells were seeded on microscope coverslips (1 cm) at a confluence of 1600 cells per slip and incubated overnight at 37° C. in DMEM. The medium was changed and compound 1 was added to a final 500 μM. The cells were incubated for 24 or 48 h at 37° C. Medium was then removed and the cells were incubated with fixing solution for 1 h at room temperature followed by three washes with phosphate buffered saline (PBS, pH 7.4). Cells were then fixed with 4% paraformaldehyde in 0.1 M phosphate buffer (pH 7.4) at room temperature for 1 h, washed twice with PBS. Cells were then permeabilize with 0.1% Triton-X100 in PBS for 30 min, followed by six washes with PBS. Cells were then rinsed with blocking buffer (PBS, 0.1% goat serum, 0.075% glycin). Cells were then incubated for 1 h at 37° C. with the anti-cytochrome c (anti-cytochrome c (Ab-1) Sheep pAb, Calbiochem) antibody or AIF (AIF (H-300), Santa Cruz Biotechnology Inc.) antibody both diluted 1:50 in blocking buffer, washed twice with blocking buffer and incubated at 37° C. with Alexa Fluor 488 donkey anti sheep IgG (Invitrogen) antibody for cytochrome c release and Alexa Fluor 546 goat anti-rabbit IgG (Invitrogen) antibody for AIF (dilution 1:50 in blocking buffer) for 1 h. […]

A further test has as its system A549. Nature of the test: Annexin-V flow cytometry, A549 cells. It is filed as cell-based, human. To be noted: 10 and 20 μM, 72 h. As to the method: In order to quantify mitaplatin-induced apoptosis in cancer cells, an Annexin-V was performed and analyzed using flow cytometry. With this analysis, the percentage of apoptotic cells found was determined at 72 h after exposure of mitaplatin and cisplatin.

With `[NH2][Pt]([NH2])([Cl])([Cl])([O]C(=O)C(Cl)Cl)[O]C(=O)C(Cl)Cl` [Mitaplatin, c,c,t-[Pt(NH3)2Cl2(O2CCHCl2)2]], in test [1], the IC50 turned out to be 14 µM. Further, the IC50 in test [2] is 18.3 µM. Moreover, the “mitochondrial membrane potential (Δψm), TMRM” value with NTera-2 cells [3] is “significantly depolarizes; also recorded: reverses the hyperpolarization”. In addition, in the test with NTera-2 cells [4], the “apoptosis inducing factor AIF location” value is listed as “located in the nucleus” and the cytochrome c distribution result is on record as “diffusely distributed in the cytoplasm”. In addition, the “apoptosis (Annexin-V)” value in the test on A549 is given as “Apoptosis was detected”.
